According to US6410561B1, “Amide derivatives and nociceptin antagonists” (Japan Tobacco Inc., priority 1998, dated 2002):
Where two headings read alike, the source gives them in different places.

How the values were obtained:
ORL-1 receptor = target: T1, ORL-1 receptor (Homo sapiens, UniProt P41146); experiment: ORL1 receptor binding assay ([3H]nociceptin); details: for Ki: calculated from IC50 and Kd of [3H]nociceptin; for IC50: membrane of human ORL-1 expression cells, [3H]nociceptin 0.5 nM
T1 construct: expressed in transfected cells
T1 sequence (P41146 whole entry): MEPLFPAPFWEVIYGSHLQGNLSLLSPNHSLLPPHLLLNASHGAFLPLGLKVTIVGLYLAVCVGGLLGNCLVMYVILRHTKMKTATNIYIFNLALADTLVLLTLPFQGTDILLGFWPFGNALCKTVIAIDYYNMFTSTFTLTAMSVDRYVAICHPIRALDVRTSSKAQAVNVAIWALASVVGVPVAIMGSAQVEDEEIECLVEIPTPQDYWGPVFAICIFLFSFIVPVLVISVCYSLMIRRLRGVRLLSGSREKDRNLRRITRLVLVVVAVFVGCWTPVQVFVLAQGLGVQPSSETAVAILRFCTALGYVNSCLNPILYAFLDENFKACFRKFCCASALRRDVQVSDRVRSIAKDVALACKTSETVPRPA
Procedure: ORL1 Receptor Binding Assay
A cell membrane suspension obtained from human ORL-1 expression cells was adjusted with Tris buffer [50 mM Tris, 2 mM EDTA, 0.1 mM (p-Amidinophenyl)methanesulfonyl Fluoride Hydrochloride (p-APMSF), 2 mg/ml BSA] to membrane protein amount of about 25 μg/ml (2.5 μg/well). This was mixed with [^3H]nociceptin (diluted with Tris buffer to a final concentration of 0.5 nM) and test compound (diluted with Tris buffer to a final concentration of 10 nM-10 μM), and the mixture was incubated at room temperature for 60 min. The membrane was recovered on a G/F-B filter (Packard, Unifilter 96GF/B) using a cell harvester and the reaction was stopped. After washing 3 times, the filter was dried at 42° C. for 1 hr. A scintillation solution (Packard, microscint-20) was added and the radioactivity (Packard, Top count A9912V) was assayed.
(§1) The nonspecific binding was the binding in the presence of 1 μM nociceptin and the difference between the total binding and nonspecific binding was taken as the specific binding. IC50 was calculated from inhibition of specific binding at each concentration of the compound, and Ki value of the test compound was calculated from this value and Kd value of [^3H]nociceptin.

μ receptor = target: T2, μ receptor (Rattus norvegicus, UniProt P33535); experiment: μ receptor binding assay ([3H]DAMGO); details: for Ki: calculated from IC50 and Kd of [3H]DAMGO; for IC50: rat cerebrum membrane, [3H]DAMGO 1 nM
T2 construct: Rat cerebrum membrane standard sample; from tissue; host or cells: rat cerebrum membranes
T2 sequence (P33535 whole entry): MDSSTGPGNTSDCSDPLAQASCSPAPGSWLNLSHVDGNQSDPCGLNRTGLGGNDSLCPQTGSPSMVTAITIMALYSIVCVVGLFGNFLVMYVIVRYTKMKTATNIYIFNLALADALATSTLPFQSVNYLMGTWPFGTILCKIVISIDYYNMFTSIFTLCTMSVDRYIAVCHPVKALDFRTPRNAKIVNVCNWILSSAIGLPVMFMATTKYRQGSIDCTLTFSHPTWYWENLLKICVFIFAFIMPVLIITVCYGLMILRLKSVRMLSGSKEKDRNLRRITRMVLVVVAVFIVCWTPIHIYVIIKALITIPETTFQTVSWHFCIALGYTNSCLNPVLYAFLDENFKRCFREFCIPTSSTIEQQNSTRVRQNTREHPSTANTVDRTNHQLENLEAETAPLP
Procedure: Rat cerebrum membrane standard sample (final concentration 0.755 mg·protein/ml), [^3H]DAMGO (Try-D-Ala-Gly-NMe-Phe-Gly-ol) [diluted with Tris buffer (50 mM Tris-HCl, 0.1 mM p-APMSF, 2 mg/ml BSA (pH=7.4)) to a final concentration of 1 nM] and test compound (diluted with Tris buffer to a final concentration of 10 nM-10 μM) were mixed, and the mixture was incubated at room temperature for 90 min. The membrane was recovered on a G/F-B filter (same as above) using a cell harvester and the reaction was stopped. After washing 3 times, the filter was dried at 42° C. for 1 hr. A scintillation solution (same as above) was added and the radioactivity (same as above) was assayed.
as §1, with “10” for “1”, “naloxone” for “nociceptin”, “[^3H]DAMGO.” for “[^3H]nociceptin.”

allodynia model = experiment: Allodynia test (intrathecal nociceptin, tactile stimulation); assay type: in vivo, Mice; details: Mus musculus, read-out: Allodynia M.E.D. (minimum effective dose)
Procedure: Mice (Crj, ICR, 4-week-old, male) were intrathecally administered with nociceptin (50 pg/5 μl) without anesthesia. For 20 min after administration and at 5 min intervals, an area from lateral region to tail of the mice was rubbed with a brush and the response of the mice was observed. The evaluation followed the criteria of 0; no change, 1; run or cry upon tactile stimulation, and 2; cry loud or dash away upon tactile stimulation. The test compound was suspended in a 0.5% MC solution and orally administered 60 min before nociceptin administration. The significant difference of the score of each administration group at 20 min after nociceptin administration from the group administered with solvent was analyzed with Mann-Whitny U-test.

Mice = experiment: Hot-plate test; assay type: in vivo; details: Mus musculus, 1 h, oral, 60 min after administration, 55.5°C, read-out: Hot-plate M.E.D. (minimum effective dose)
Procedure: Mice (Crj, ICR, 4-week-old, male) were placed on a hot-plate (temperature 55.5±0.5° C.) and the time until the mice jumped and tried to run away was recorded. The mice were grouped according to the time and body weight so that the groups were evenly membered. The test compound was suspended in a 0.5% methylcellulose (MC) solution and orally administered to mice. After 60 min, the mice were again placed on a hot-plate and the time until they licked the hindlimb or jumped and tried to run away was recorded. The significant difference from the group administered with solvent was analyzed with ANOVA followed by Dunnett two-tailed test.

[1] = mice, oral, 60 min before nociceptin 50 pg i.t., score at 20 min

CCc1ccc(OCc2ccccc2C(=O)Nc2ccc3nc(C)cc(N)c3c2)cc1.Cl [Example 1, N-(4-amino-2-methyl-6-quinolyl)-2-[(4-ethylphenoxy)methyl]-benzamide hydrochloride]
Ki (ORL-1 receptor): 7 nM | IC50 (ORL-1 receptor): 120 nM | Ki (μ receptor): 570 nM | IC50 (μ receptor): 1520 nM | minimal effective dose (allodynia model; [1]): 0.3 mg/kg | minimal effective dose (Mice): 1 mg/kg

Cc1cc(N)c2cc(NC(=O)c3ccccc3COc3ccc(Cl)cc3Cl)ccc2n1.Cl [Example 2, N-(4-amino-2-methyl-6-quinolyl)-2-[(2,4-dichlorophenoxy)methyl]benzamide hydrochloride]
Ki (ORL-1 receptor): 4 nM | IC50 (ORL-1 receptor): 70 nM | Ki (μ receptor): 497 nM | IC50 (μ receptor): 1330 nM | minimal effective dose (allodynia model; [1]): 0.3 mg/kg | minimal effective dose (Mice): 1 mg/kg | melting point: 262 °C

Cc1cc(N)c2cc(NC(=O)c3ccccc3COc3ccccc3)ccc2n1.Cl [Example 3, N-(4-amino-2-methyl-6-quinolyl)-2-(phenoxymethyl)benzamide hydrochloride]
Ki (ORL-1 receptor): 79 nM | IC50 (ORL-1 receptor): 1470 nM | Ki (μ receptor): 417 nM | IC50 (μ receptor): 1110 nM | minimal effective dose (allodynia model; [1]): 3 mg/kg | minimal effective dose (Mice): 30 mg/kg

COc1ccc(OCc2ccccc2C(=O)Nc2ccc3nc(C)cc(N)c3c2)cc1.Cl [Example 4, N-(4-amino-2-methyl-6-quinolyl)-2-[(4-methoxyphenoxy)methyl]benzamide hydrochloride]
Ki (μ receptor): 453 nM | IC50 (μ receptor): 1260 nM | minimal effective dose (allodynia model; po): < 1 mg/kg | minimal effective dose (Mice): < 3 mg/kg | melting point: 276 °C

Cc1cc(C)cc(OCc2ccccc2C(=O)Nc2ccc3nc(C)cc(N)c3c2)c1.Cl [Example 5, N-(4-amino-2-methyl-6-quinolyl)-2-[(3,5-dimethylphenoxy)methyl]benzamide hydrochloride]
Ki (ORL-1 receptor): 28 nM | IC50 (ORL-1 receptor): 520 nM | Ki (μ receptor): 505 nM | IC50 (μ receptor): 1340 nM | minimal effective dose (allodynia model; [1]): 3 mg/kg | melting point: 265 °C

Cc1cc(N)c2cc(NC(=O)c3ccccc3COc3ccc([N+](=O)[O-])cc3)ccc2n1 [Example 7, N-(4-amino-2-methyl-6-quinolyl)-2-[(4-nitrophenoxy)methyl]benzamide]
Ki (μ receptor): 346 nM | IC50 (μ receptor): 960 nM | minimal effective dose (allodynia model; [1]): 0.3 mg/kg | minimal effective dose (Mice): 3 mg/kg | melting point: 148 °C

COc1cccc(OCc2ccccc2C(=O)Nc2ccc3nc(C)cc(N)c3c2)c1OC.Cl [Example 8, N-(4-amino-2-methyl-6-quinolyl)-2-[(2,3-dimethoxyphenoxy)methyl]benzamide hydrochloride]
Ki (ORL-1 receptor): 50 nM | IC50 (ORL-1 receptor): 940 nM | Ki (μ receptor): 183 nM | IC50 (μ receptor): 490 nM | minimal effective dose (allodynia model; [1]): 3 mg/kg | melting point: 196 °C

Cc1cccc(OCc2ccccc2C(=O)Nc2ccc3nc(C)cc(N)c3c2)c1 [Example 9, N-(4-amino-2-methyl-6-quinolyl)-2-[(3-methylphenoxy)methyl]benzamide]
Ki (ORL-1 receptor): 16 nM | IC50 (ORL-1 receptor): 320 nM | Ki (μ receptor): 764 nM | IC50 (μ receptor): 2030 nM | minimal effective dose (allodynia model; [1]): 1 mg/kg | minimal effective dose (Mice): < 3 mg/kg

Cc1cc(N)c2cc(NC(=O)c3ccccc3COc3ccc(Cl)cc3)ccc2n1.Cl [Example 11, N-(4-amino-2-methyl-6-quinolyl)-2-[(4-chlorophenoxy)methyl]benzamide hydrochloride]
Ki (ORL-1 receptor): 3 nM | IC50 (ORL-1 receptor): 60 nM | Ki (μ receptor): 424 nM | IC50 (μ receptor): 1120 nM | minimal effective dose (allodynia model; [1]): 0.3 mg/kg | minimal effective dose (Mice): 3 mg/kg | melting point: 245 °C

CC(=O)c1ccc(OCc2ccccc2C(=O)Nc2ccc3nc(C)cc(N)c3c2)cc1.Cl [Example 12, N-(4-amino-2-methyl-6-quinolyl)-2-[(4-acetylphenoxy)methyl]benzamide hydrochloride]
Ki (ORL-1 receptor): 8 nM | IC50 (ORL-1 receptor): 160 nM | Ki (μ receptor): 254 nM | IC50 (μ receptor): 670 nM | minimal effective dose (allodynia model; [1]): 0.3 mg/kg | minimal effective dose (Mice): 3 mg/kg | melting point: 270 °C
